Reference: ChEMBL document CHEMBL3045033, “Synthesis of new potential anticancer agents based on 4-thiazolidinone and oleanane scaffolds” (Med Chem Res, 2012)
Values joined by “and” are separate entries in the source; they are usually repeats but may differ in a detail not shown here. Equal entries are not always repeated.

Experiments:
Type in all cases: functional
HT-29 = assay: Cytotoxicity against Homo sapiens (human) HT-29 cells at 10^-4 to 10^-8 M after 48 hr by SRB assay; details: HT-29, 48 h, read-out: pTGI (converted)
HCC 2998 [1] = assay: Cytotoxicity against Homo sapiens (human) HCC2998 cells at 10^-4 to 10^-8 M after 48 hr by SRB assay; details: HCC 2998, 48 h, read-out: pTGI (converted)
NCI-H522 [2] = assay: Cytotoxicity against Homo sapiens (human) NCI-H522 cells at 10^-4 to 10^-8 M after 48 hr by SRB assay; details: NCI-H522, 48 h, read-out: pTGI (converted)
NCI-H23 = assay: Cytotoxicity against Homo sapiens (human) NCI-H23 cells at 10^-4 to 10^-8 M after 48 hr by SRB assay; details: NCI-H23, 48 h, read-out: pTGI (converted)
T47D = assay: Cytotoxicity against Homo sapiens (human) T47D cells after 48 hr by SRB assay
BT-549 = assay: Cytotoxicity against Homo sapiens (human) BT549 cells after 48 hr by SRB assay; details: BT-549, 48 h
Hs-578T = assay: Cytotoxicity against Homo sapiens (human) Hs578T cells after 48 hr by SRB assay
MCF7 = assay: Cytotoxicity against Homo sapiens (human) MCF7 cells after 48 hr by SRB assay; details: MCF7, 48 h
MDA-MB-231 = assay: Cytotoxicity against Homo sapiens (human) MDA-MB-231 cells after 48 hr by SRB assay; details: MDA-MB-231, 48 h
PC-3 [3] = assay: Cytotoxicity against Homo sapiens (human) PC3 cells after 48 hr by SRB assay; details: PC-3, 48 h
SN12C = assay: Cytotoxicity against Homo sapiens (human) SN12C cells after 48 hr by SRB assay
TK-10 = assay: Cytotoxicity against Homo sapiens (human) TK10 cells after 48 hr by SRB assay; details: TK-10, 48 h
RXF 393 [4] = assay: Cytotoxicity against Homo sapiens (human) RXF393 cells after 48 hr by SRB assay
CAKI-1 = assay: Cytotoxicity against Homo sapiens (human) Caki1 cells after 48 hr by SRB assay; details: CAKI-1, 48 h
786-0 [5] = assay: Cytotoxicity against Homo sapiens (human) 786-0 cells after 48 hr by SRB assay; details: 786-0, 48 h
OVCAR-8 = assay: Cytotoxicity against Homo sapiens (human) OVCAR8 cells after 48 hr by SRB assay; details: OVCAR-8, 48 h
OVCAR-4 = assay: Cytotoxicity against Homo sapiens (human) OVCAR4 cells after 48 hr by SRB assay; details: OVCAR-4, 48 h
IGROV-1 [6] = assay: Cytotoxicity against Homo sapiens (human) IGROV1 cells after 48 hr by SRB assay
UACC-62 = assay: Cytotoxicity against Homo sapiens (human) UACC62 cells after 48 hr by SRB assay; details: UACC-62, 48 h
PC-3 [7] = assay: Cytotoxicity against Homo sapiens (human) PC3 cells assessed as cellular growth at 10^-5 M after 48 hr by SRB assay relative to untreated control
RXF 393 [8] = assay: Cytotoxicity against Homo sapiens (human) RXF393 cells at 10^-4 to 10^-8 M after 48 hr by SRB assay; details: RXF 393, 48 h, read-out: pTGI (converted)
786-0 [9] = assay: Cytotoxicity against Homo sapiens (human) 786-0 cells at 10^-4 to 10^-8 M after 48 hr by SRB assay; details: 786-0, 48 h, read-out: pTGI (converted)
IGROV-1 [10] = assay: Cytotoxicity against Homo sapiens (human) IGROV1 cells at 10^-4 to 10^-8 M after 48 hr by SRB assay; details: IGROV-1, 48 h, read-out: pTGI (converted)
MDA-MB-435 [11] = assay: Cytotoxicity against Homo sapiens (human) MDA-MB-435 cells at 10^-4 to 10^-8 M after 48 hr by SRB assay; details: MDA-MB-435, 48 h, read-out: pTGI (converted)
SK-MEL-2 = assay: Cytotoxicity against Homo sapiens (human) SK-MEL-2 cells after 48 hr by SRB assay; details: SK-MEL-2, 48 h
SK-MEL-28 = assay: Cytotoxicity against Homo sapiens (human) SK-MEL-28 cells after 48 hr by SRB assay
MDA-MB-435 [12] = assay: Cytotoxicity against Homo sapiens (human) MDA-MB-435 cells after 48 hr by SRB assay; details: MDA-MB-435, 48 h; for CC50: read-out: pLC50 (the source's name) (converted)
Malme-3M = assay: Cytotoxicity against Homo sapiens (human) MALME-3M cells after 48 hr by SRB assay; details: for CC50: read-out: pLC50 (the source's name) (converted)
U-251 = assay: Cytotoxicity against Homo sapiens (human) U251 cells after 48 hr by SRB assay
SF-295 = assay: Cytotoxicity against Homo sapiens (human) SF295 cells after 48 hr by SRB assay; details: SF-295, 48 h
SF-268 = assay: Cytotoxicity against Homo sapiens (human) SF268 cells after 48 hr by SRB assay; details: SF-268, 48 h
KM12 = assay: Cytotoxicity against Homo sapiens (human) KM12 cells after 48 hr by SRB assay; details: KM12, 48 h
HCT-116 = assay: Cytotoxicity against Homo sapiens (human) HCT116 cells after 48 hr by SRB assay; details: HCT-116, 48 h
HCT-15 = assay: Cytotoxicity against Homo sapiens (human) HCT15 cells after 48 hr by SRB assay; details: HCT-15, 48 h
HCC 2998 [13] = assay: Cytotoxicity against Homo sapiens (human) HCC2998 cells after 48 hr by SRB assay; details: HCC 2998, 48 h
NCI-H460 = assay: Cytotoxicity against Homo sapiens (human) NCI-H460 cells after 48 hr by SRB assay; details: NCI-H460, 48 h
NCI-H522 [14] = assay: Cytotoxicity against Homo sapiens (human) NCI-H522 cells after 48 hr by SRB assay; details: NCI-H522, 48 h; for CC50: read-out: pLC50 (the source's name) (converted)
RPMI-8226 [15] = assay: Cytotoxicity against Homo sapiens (human) RPMI8226 cells after 48 hr by SRB assay; details: RPMI-8226, 48 h
HL-60(TB) = assay: Cytotoxicity against Homo sapiens (human) HL-60(TB) cells after 48 hr by SRB assay; details: HL-60, 48 h
RPMI-8226 [16] = assay: Cytotoxicity against Homo sapiens (human) RPMI8226 cells assessed as cellular growth at 10^-5 M after 48 hr by SRB assay relative to untreated control
K562 = assay: Cytotoxicity against Homo sapiens (human) K562 cells assessed as cellular growth at 10^-5 M after 48 hr by SRB assay relative to untreated control

## COC(=O)[C@]12CCC(C)(C)C[C@H]1C1=CC[C@@H]3[C@@]4(C)CC/C(=N\O)C(C)(C)[C@@H]4CC[C@@]3(C)[C@]1(C)CC2
HT-29
  TGI: 79.4 µM
HCC 2998 [1]
  TGI: 42.7 µM
NCI-H522 [2]
  TGI: 66.1 µM
NCI-H23
  TGI: 38 µM
T47D
  GI50: 25.1 µM
BT-549
  GI50: 64.6 µM
Hs-578T
  GI50: 27.5 µM
MCF7
  GI50: 20.4 µM
MDA-MB-231
  GI50: 20.4 µM
PC-3 [3]
  GI50: 20.4 µM
SN12C
  GI50: 20.9 µM
TK-10
  GI50: 33.9 µM
RXF 393 [4]; Homo sapiens, RXF 393, 48 h
  GI50: 18.2 µM
CAKI-1
  GI50: 19.5 µM
786-0 [5]
  GI50: 17.8 µM
OVCAR-8
  GI50: 34.7 µM
OVCAR-4
  GI50: 30.2 µM
IGROV-1 [6]; Homo sapiens, IGROV-1, 48 h
  GI50: 33.9 µM
UACC-62
  GI50: 22.4 µM
PC-3 [7]
  Activity: 38.63%
RXF 393 [8]
  TGI: 36.3 µM
786-0 [9]
  TGI: 34.7 µM
IGROV-1 [10]
  TGI: > 100 µM
MDA-MB-435 [11]
  TGI: > 100 µM
SK-MEL-2
  GI50: 64.6 µM
SK-MEL-28; Homo sapiens, SK-MEL-28, 48 h
  GI50: 24.5 µM
MDA-MB-435 [12]
  GI50: 39.8 µM
  CC50: > 100 µM
Malme-3M
  CC50: > 100 µM
U-251; Homo sapiens, U-251, 48 h
  GI50: 19.1 µM
SF-295
  GI50: 17.8 µM
SF-268
  GI50: 24 µM
KM12
  GI50: 38.9 µM
HCT-116
  GI50: 29.5 µM
HCT-15
  GI50: 24 µM
HCC 2998 [13]
  GI50: 22.9 µM
NCI-H460
  GI50: 21.9 µM
NCI-H522 [14]
  GI50: 26.3 µM
  CC50: > 100 µM
RPMI-8226 [15]
  GI50: 39.8 µM
HL-60(TB)
  GI50: 58.9 µM

## CC1(C)CC[C@@]23CC[C@]4(C)[C@@](OC2=O)([C@@H]3C1)[C@@H](Br)C[C@@H]1[C@@]2(C)CC/C(=N\O)C(C)(C)[C@@H]2CC[C@]14C
HT-29
  TGI: > 100 µM
HCC 2998 [1]
  TGI: > 100 µM
NCI-H23
  TGI: > 100 µM
T47D
  GI50: 17.4 µM
BT-549
  GI50: 9.33 µM
Hs-578T
  GI50: 4.68 µM
MCF7
  GI50: 11.7 µM
MDA-MB-231
  GI50: 17.8 µM
PC-3 [3]
  GI50: 40.7 µM
SN12C
  GI50: 37.2 µM
TK-10
  GI50: 18.6 µM
CAKI-1
  GI50: 28.2 µM
786-0 [5]
  GI50: 49 µM
OVCAR-8
  GI50: 8.51 µM
OVCAR-4
  GI50: 11.5 µM
UACC-62
  GI50: 18.6 µM
RPMI-8226 [16]
  Activity: 38.33%
K562
  Activity: 21.17%
PC-3 [7]
  Activity: 38.45%
786-0 [9]
  TGI: > 100 µM
SK-MEL-2
  GI50: > 100 µM
SK-MEL-28; Homo sapiens, SK-MEL-28, 48 h
  GI50: 43.7 µM
MDA-MB-435 [12]
  CC50: > 100 µM
Malme-3M
  GI50: 3.02 µM
  CC50: > 100 µM
U-251; Homo sapiens, U-251, 48 h
  GI50: 22.4 µM
SF-295
  GI50: 14.1 µM
SF-268
  GI50: 27.5 µM
KM12
  GI50: 8.91 µM
HCT-116
  GI50: 19.1 µM
HCT-15
  GI50: 30.9 µM
HCC 2998 [13]
  GI50: 81.3 µM
NCI-H460
  GI50: 19.1 µM
NCI-H522 [14]
  CC50: > 100 µM
RPMI-8226 [15]
  GI50: > 100 µM
HL-60(TB)
  GI50: > 100 µM

## COC(=O)[C@]12CCC(C)(C)C[C@H]1C1=CC[C@@H]3[C@@]4(C)CC/C(=N\OC(=O)/C=C5/SC(=O)NC5=O)C(C)(C)[C@@H]4CC[C@@]3(C)[C@]1(C)CC2
HT-29
  TGI: 5.13 µM
HCC 2998 [1]
  TGI: 12.3 µM
NCI-H522 [2]
  TGI: 5.62 µM
NCI-H23
  TGI: 12.3 µM
RXF 393 [4]
  GI50: 6.61 µM and 1.91 µM
IGROV-1 [6]
  GI50: 8.91 µM and 1.91 µM
RPMI-8226 [16]
  Activity: 16.33%
K562
  Activity: 26.64%
RXF 393 [8]
  TGI: 3.55 µM
786-0 [9]
  TGI: 11.5 µM
IGROV-1 [10]
  TGI: 4.17 µM
MDA-MB-435 [11]
  TGI: 9.12 µM
SK-MEL-28
  GI50: 7.08 µM and 2.04 µM
U-251
  GI50: 6.76 µM and 1.78 µM
